Laboratory results: US20120070486A1, “METHODS AND COMPOSITIONS RELATED TO PREFOLDIN AND ITS REGULATION” (priority 2007, published 2012)

How the values were obtained:
SKOV3 cell line = test: docetaxel IC50 in chemosensitive parental SKOV3 cell line; format: cell-based; settings: Homo sapiens, SK-OV-3, one range printed for HeyA8 and SKOV3
HeyA8 cell line = test: docetaxel IC50 in chemosensitive parental HeyA8 cell line; format: cell-based; settings: Homo sapiens, HEY A8, one range printed for HeyA8 and SKOV3
HeyA8-MDR cell line = test: docetaxel IC50 in chemoresistant HeyA8-MDR cell line; format: cell-based; settings: Homo sapiens
SKOV3-TR cell line = test: docetaxel IC50 in chemoresistant SKOV3-TR cell line; format: cell-based; settings: Homo sapiens, SKOV3TR
PFDN4 mRNA = test: RT-PCR screen of siRNA mediated gene silencing of PFDN4 in SKOV3 cells; format: cell-based, human
Experimental: RT-PCR: RT-PCR RNA was extracted from ovarian cancer cell lines using TRIzo10 (Invitrogen, Carlsbad, Calif.) as per manufacturer's instructions. 2 μg of total mRNA was reverse transcribed using the Superscript first strand kit (Superscript, Invitrogen, Carlsbad, Calif.), and 2 μL from each reaction was subjected to PCR using standard techniques. PFDN4 primers generated a 413 by product (PFDN4 forward: […] (SEQ ID NO:1); PFDN4 reverse: […] (SEQ ID NO:2)). GAPDH primers generated an approximately 800 by product (GAPDH forward:[…] (SEQ ID NO:3); GAPDH reverse: […] (SEQ ID NO:4)). Semi-quantitative cycling conditions were optimized to the following program: 98° C. for 2 minutes followed by 22 cycles at 95° C. for 30 seconds, 55° C. for 30 seconds and 72° C. for 60 seconds, followed by a final cycle at 72° C. for 5 minutes. PCR products were visualized by agarose gel electrophoresis.
RNA interference: PFDN4 siRNA (sense: […] (SEQ ID NO:6); antisense: […] (SEQ ID NO:7)) and AllStars Negative Control siRNA were purchased from Qiagen (Valencia, Calif.). HeyA8 and SKOV3 were grown to 50% confluence prior to transfection with control or PFDN4 siRNA using Lipofectamine 2000 (Invitrogen, Valencia, Calif.) following manufacturer's instruction. […] Coverslips were washed twice with PBS and finally mounted in anti-fade mounting media and then visualized by fluorescence microscopy. […]

PFDN4 protein = test: siRNA mediated silencing of PFDN4 protein expression in SKOV3 cells (western blot); format: cell-based, human; settings: in vitro, by 48 hours
Experimental: Immunoprecipitation and Western Blot Analysis: Each 10 cm plate of cells was lysed in 1 mL NP-40 lysis buffer (50 mM Hepes, pH 7.25, 150 mM NaCl, […], 50 mM NaF, 2 mM EDTA, 1 mM sodium orthovanadate, 1% NP-40), supplemented with Roche complete protease inhibitors (Roche Diagnostics, Indianapolis, Ind.). Cell lysates were cleared by centrifugation at 14000 g for 15 minutes at 4° C. Protein concentration was determined using the BCA Protein Assay (Pierce Biotechnology, Rockford, Ill.). 1 mg total protein lysate was combined with 50 μL of 20% Protein A Sepharose CL4B beads (Amersham Biosciences, Piscataway, N.J.) and 1 μg of anti-PFDN4 antibody. […]
RNA interference: PFDN4 siRNA (sense: […] (SEQ ID NO:6); antisense: […] (SEQ ID NO:7)) and AllStars Negative Control siRNA were purchased from Qiagen (Valencia, Calif.). […] Coverslips were washed twice with PBS and finally mounted in anti-fade mounting media and then visualized by fluorescence microscopy.
To determine the effect of PFDN4 downregulation in ovarian cancer in vitro, the inventors utilized RNA interference (RNAi) technology to silence PFDN4 expression in ovarian cancer cells. […] Using an RT-PCR based screen, the inventors detected a decrease in PFDN4 mRNA within 4 hours following transfection, with greater than 90% silencing observed by 24 hours following transfection (FIG. 5).

[1] = test system: microtubule cytoskeleton of SKOV3 cells; test: indirect immunofluorescent staining for α-tubulin of the microtubule cytoskeleton after siRNA transfection; format: cell-based, human; settings: 48 hours following transfection, fluorescent microscopy, compared to control siRNA
Experimental: RNA interference: PFDN4 siRNA (sense: […] (SEQ ID NO:6); antisense: […] (SEQ ID NO:7)) and AllStars Negative Control siRNA were purchased from Qiagen (Valencia, Calif.). HeyA8 and SKOV3 were grown to 50% confluence prior to transfection with control or PFDN4 siRNA using Lipofectamine 2000 (Invitrogen, Valencia, Calif.) following manufacturer's instruction. Cells were typically harvested for analysis 48-72 hours following transfection. Immunofluorescent staining HeyA8 and SKOV3 cells were grown on glass coverslips in 24-well plates for 24 hours prior to transfection with either control or PFDN4 siRNA, and cultured for an additional 48 hours. Media was then aspirated and replaced with 0.5 mL of 4% paraformaldehyde for 30 minutes. Cells were then incubated with 100 mM glycine for 5 minutes, washed once with PBS and then incubated with 0.2% TritonX-100 in PBS for 10 minutes. Coverslips were washed thrice in PBS and then blocked for 30 minutes in 10% goat serum in PBS. Coverslips were then incubated with a 1:2000 dilution of anti-α-tubulin antibodies for 1.5 hours at room temperature. Slides were washed three times with PBS and then incubated for 1 hour with Alexa 555-labelled anti-rabbit secondary antibodies. Coverslips were washed twice with PBS and finally mounted in anti-fade mounting media and then visualized by fluorescence microscopy. […]

For `CC(=O)O[C@@]12CO[C@@H]1C[C@H](O)[C@@]1(C)C(=O)[C@H](O)C3=C(C)[C@@H](OC(=O)[C@H](O)[C@@H](NC(=O)OC(C)(C)C)c4ccccc4)C[C@@](O)([C@@H](OC(=O)c4ccccc4)[C@H]21)C3(C)C` [docetaxel], the IC50 (SKOV3 cell line) was 1 to 6.2 nM, the IC50 (HeyA8 cell line) was 1 to 6.2 nM and the IC50 (HeyA8-MDR cell line) was at least 250 nM. The IC50 (SKOV3-TR cell line) was at least 250 nM.
“PFDN4 siRNA: siRNA, sense UUCAGCGAGUGUUAGCAGATT (SEQ ID NO:6), antisense UCUGCUAACACCGCUGAATT (SEQ ID NO:7), purchased from Qiagen (chemistry not given here)” was tested, and the “time to detected decrease in PFDN4 mRNA following transfection” value (PFDN4 mRNA) was at most 4 h, the “PFDN4 mRNA silencing” value (PFDN4 mRNA; by 24 hours following transfection) was “greater than 90%” and the “down-regulation in PFDN4 protein production” value (PFDN4 protein) was “detectable down-regulation”. The “morphology of microtubule cytoskeleton” value [1] was “less organized (FIG. 7B) and more condensed”.
